# Assay results as given in patent publication US10195578B2, “Peptide library production method, peptide library, and screening method” (The University of Tokyo, priority 2010, dated 2019).
# Structures can show the parent of a compound that is named as a salt. Where a SMILES comes first, the peptide text is derived from it. Bridges are numbered along the chain shown (N, C = ends). Where no end group is shown, it is not given here. [ ]: non-standard residue; d: D form. The star is where a group is joined. Tfa = O=C(C(F)(F)F)*
# Target: T1, SIRT2 (Homo sapiens, UniProt Q8IXJ6)
# T1 sequence (Q8IXJ6 1-389): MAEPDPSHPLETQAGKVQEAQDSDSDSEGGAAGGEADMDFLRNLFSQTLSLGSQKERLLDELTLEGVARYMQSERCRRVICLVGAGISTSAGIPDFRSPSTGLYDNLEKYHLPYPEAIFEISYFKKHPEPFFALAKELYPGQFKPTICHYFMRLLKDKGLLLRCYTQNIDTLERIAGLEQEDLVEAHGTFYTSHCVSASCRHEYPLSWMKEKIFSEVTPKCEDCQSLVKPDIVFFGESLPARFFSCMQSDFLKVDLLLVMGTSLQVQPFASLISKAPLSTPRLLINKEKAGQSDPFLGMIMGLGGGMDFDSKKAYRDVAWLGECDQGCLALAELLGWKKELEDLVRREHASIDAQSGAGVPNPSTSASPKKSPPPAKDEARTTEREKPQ
# Assay: Evaluation of inhibitory activity of peptides against SIRT2 (fluorescence-using system)
# Assay type: biochemical
# Settings: peptide at 1 μM; FIG. 3
# Excerpt: In an evaluation system using fluorescence, the inhibitory activity of the selected peptides against SIRT2 was studied. More specifically, first, peptides to be deacetylated with SIRT2 each having, at both ends thereof, a fluorescent group and a quenching group is deacetylated by mixing with SIRT2. When the resulting peptides are reacted with protease that cleaves only a deacetylated peptide, the quenching group is dissociated from the fluorescent group of only the peptides deacetylated with SIRT2 and fluorescence is emitted. During this deacetylation reaction, presence of an inhibitor against SIRT2 retards the progress of deacetylation of the substrate peptide and fluorescence intensity obtained in the end decreases. This means that the inhibitory ability of the selected peptides can be evaluated by the intensity of fluorescence observed in the end.
row,Compound,"inhibitory ability against SIRT2 (activity of SIRT2, fluorescence intensity)"
1,"CC[C@H](C)[C@@H]1NC(=O)[C@H](CCCNC(=N)N)NC(=O)[C@H](Cc2ccc(O)cc2)NC(=O)[C@H](CC(=O)O)NC(=O)[C@H](Cc2c[nH]cn2)NC(=O)[C@@H](Cc2ccc(O)cc2)NC(=O)CSC[C@@H](C(=O)NCC(=O)N[C@@H](CO)C(=O)NCC(=O)N[C@@H](CO)C(=O)NCC(=O)N[C@@H](CO)C(=O)O)NC(=O)[C@@H]2CCCN2C(=O)[C@H](Cc2ccc(O)cc2)NC(=O)[C@H]([C@@H](C)O)NC(=O)[C@H](Cc2c[nH]cn2)NC(=O)[C@H](Cc2ccc(O)cc2)NC(=O)[C@H](CCCNC(=N)N)NC(=O)[C@H](CCCCNC(=O)C(F)(F)F)NC1=O [2D-08, XHDYRIZRYHTYPC] ({CH2CO}-[dY]HDYRIK(Tfa)RYHTYPCGSGSGS-OH; thioether N-14; N-terminus and C-terminus assumed)",completely suppressed the activity of SIRT2
2,"CC[C@H](C)[C@@H]1NC(=O)[C@H](CCCNC(=N)N)NC(=O)[C@H](Cc2ccccc2)NC(=O)[C@H](CC(N)=O)NC(=O)[C@H](CO)NC(=O)[C@H](Cc2ccc(O)cc2)NC(=O)CSC[C@@H](C(=O)NCC(=O)N[C@@H](CO)C(=O)NCC(=O)N[C@@H](CO)C(=O)NCC(=O)N[C@@H](CO)C(=O)O)NC(=O)[C@H](CO)NC(=O)[C@H](CO)NC(=O)[C@H](CC(N)=O)NC(=O)[C@H](CO)NC(=O)[C@H](Cc2ccc(O)cc2)NC(=O)[C@H](CCCNC(=N)N)NC(=O)[C@H](CCCCNC(=O)C(F)(F)F)NC1=O [2L-08, XSNFRIZRYSNSSC] ({CH2CO}-YSNFRIK(Tfa)RYSNSSCGSGSGS-OH; thioether N-14; N-terminus and C-terminus assumed)",completely suppressed the activity of SIRT2
3,XHTYHNZRRTNYYC [2L-05],completely suppressed the activity of SIRT2
4,"XYNTIIZTYGC ({CH2CO}-[dY]YNTIIK(trifluoroacetyl)TYGCGSGSGS; thioether N-11 (inferred)) [2D-03, thioether-cyclized peptide from NNC library; X = α-N-chloroacetyl-D-tyrosine, Z = ε-N-trifluoroacetyllysine]",completely suppressed the activity of SIRT2
